Assay results: patent publication US12595288B2 (priority 2020, dated 2026)
Where two headings read alike, the source gives them in different places. Bridge positions count the residues as written; N and C are the ends. Ends that are not written are not given here. Peptide text beside a SMILES is read from it.

Assays:
[1] = tested on: DDAVP-induced hyponatremia in Sprague-Dawley rats; conditions: rat, in vivo
[2] = target: human Arginine Vasopressin Receptor 2A (AVPR2A) (Homo sapiens, UniProt P30518); assay: cell-based
[3] = target: Caspase 1 (Homo sapiens, UniProt P29466); assay: biochemical
[4] = target: Caspase 2 (Homo sapiens, UniProt P42575); assay: biochemical
[5] = target: Caspase 5 (Homo sapiens, UniProt P51878); assay: biochemical
[6] = target: Caspase 6 (Homo sapiens, UniProt P55212); assay: biochemical
[7] = target: Caspase 9 (Homo sapiens, UniProt P55211); assay: biochemical
[8] = target: Caspase 10 (Homo sapiens, UniProt Q92851); assay: biochemical
[9] = target: Caspase 11 (Mus musculus, UniProt P70343); assay: biochemical
[10] = target: Cathepsin C (Homo sapiens, UniProt P53634); assay: biochemical
[11] = target: Cathepsin G (Homo sapiens, UniProt P08311); assay: biochemical
[12] = target: Chymase (Homo sapiens, UniProt P23946); assay: biochemical
[13] = target: Chymotrypsin (Bos taurus, UniProt P00766); assay: biochemical; parameters: species or system Bovine
[14] = target: Elastase (Homo sapiens, UniProt P08246); assay: biochemical
[15] = target: Kallikrein 5 (Homo sapiens, UniProt Q9Y337); assay: biochemical
[16] = target: Kallikrein 7 (Homo sapiens, UniProt P49862); assay: biochemical
[17] = target: Matriptase 2 (Homo sapiens, UniProt Q8IU80); assay: biochemical
[18] = target: Papain (Carica papaya, UniProt P00784); assay: biochemical
[19] = target: Plasma Kallikrein (Homo sapiens, UniProt P03952); assay: biochemical
[20] = target: Trypsin (Bos taurus, UniProt P00760); assay: biochemical; parameters: species or system Bovine
[21] = target: Tryptase b2 (Homo sapiens, UniProt P20231); assay: biochemical
[22] = target: Tryptase g1; type: biochemical, Human; conditions: read-out: Compound IC50
[23] = tested on: 156 other GPCRs, including V1aR, V1bR and OTR; conditions: cited from earlier work
[24] = target: Caspase 7 (Homo sapiens, UniProt P55210); type: biochemical; conditions: read-out: Compound IC50
[25] = target: human vasopressin-2 receptor (V2R) (Homo sapiens, UniProt P30518); assay: biochemical; type: binding
[26] = target: FXa (Homo sapiens, UniProt P00742); type: biochemical; conditions: read-out: Compound IC50
[27] = target: Kallikrein 12 (Homo sapiens, UniProt Q9UKR0); type: biochemical; conditions: read-out: Compound IC50
[28] = target: Kallikrein 13 (Homo sapiens, UniProt Q9UKR3); type: biochemical; conditions: read-out: Compound IC50
[29] = target: Kallikrein 14 (Homo sapiens, UniProt Q9P0G3); type: biochemical; conditions: read-out: Compound IC50
[30] = target: Plasmin (Homo sapiens, UniProt P00747); type: biochemical; conditions: read-out: Compound IC50
[31] = target: Thrombin A (Homo sapiens, UniProt P00734); type: biochemical; conditions: read-out: Compound IC50
[32] = target: Urokinase (Homo sapiens, UniProt P00749); type: biochemical; conditions: read-out: Compound IC50
[33] = target: Caspase 4 (Homo sapiens, UniProt P49662); type: biochemical; conditions: read-out: Compound IC50
[34] = target: Caspase 8 (Homo sapiens, UniProt Q14790); type: biochemical; conditions: read-out: Compound IC50
[35] = target: Kallikrein 1 (Homo sapiens, UniProt P06870); assay: biochemical
[36] = target: Proteinase A (Bacillus licheniformis, UniProt P00780); assay: biochemical; parameters: species or system Bacillus Iicheniformis
[37] = tested on: V2R versus V1a; conditions: cited from earlier work
[38] = target: Cathepsin B (Homo sapiens, UniProt P07858); type: biochemical; conditions: read-out: Compound IC50
[39] = target: Cathepsin H (Homo sapiens, UniProt P09668); type: biochemical; conditions: read-out: Compound IC50
[40] = target: Cathepsin L (Homo sapiens, UniProt P07711); type: biochemical; conditions: read-out: Compound IC50
[41] = target: Cathepsin S (Homo sapiens, UniProt P25774); type: biochemical; conditions: read-out: Compound IC50
[42] = target: Cathepsin V (Homo sapiens, UniProt O60911); type: biochemical; conditions: read-out: Compound IC50

Sequence of human vasopressin-2 receptor (V2R) (P30518 whole entry): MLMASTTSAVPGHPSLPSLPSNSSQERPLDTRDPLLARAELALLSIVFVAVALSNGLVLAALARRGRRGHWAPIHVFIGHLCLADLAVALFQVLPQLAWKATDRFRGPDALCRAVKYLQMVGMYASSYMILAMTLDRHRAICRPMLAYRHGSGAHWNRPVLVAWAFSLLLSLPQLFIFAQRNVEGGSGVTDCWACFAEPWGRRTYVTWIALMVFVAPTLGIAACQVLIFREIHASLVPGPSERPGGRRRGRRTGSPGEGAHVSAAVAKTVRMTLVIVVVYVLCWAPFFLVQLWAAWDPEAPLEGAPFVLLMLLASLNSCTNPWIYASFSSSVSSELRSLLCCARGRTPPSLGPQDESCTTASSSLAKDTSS
Sequence of Trypsin (P00760 24-246): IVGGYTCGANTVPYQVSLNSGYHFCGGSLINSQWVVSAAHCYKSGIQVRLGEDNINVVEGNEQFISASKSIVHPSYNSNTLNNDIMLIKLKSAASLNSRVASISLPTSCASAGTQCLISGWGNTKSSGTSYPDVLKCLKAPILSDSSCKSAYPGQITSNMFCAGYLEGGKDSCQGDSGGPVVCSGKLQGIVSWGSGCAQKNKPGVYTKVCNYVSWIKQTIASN
Sequence of Kallikrein 7 (P49862 30-252): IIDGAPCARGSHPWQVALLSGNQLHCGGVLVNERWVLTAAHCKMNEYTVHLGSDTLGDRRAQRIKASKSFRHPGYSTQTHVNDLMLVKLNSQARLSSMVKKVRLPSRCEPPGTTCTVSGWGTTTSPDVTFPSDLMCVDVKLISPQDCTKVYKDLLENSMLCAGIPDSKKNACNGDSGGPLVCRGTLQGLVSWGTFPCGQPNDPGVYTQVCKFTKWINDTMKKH
Sequence of Caspase 11 (P70343 102-373): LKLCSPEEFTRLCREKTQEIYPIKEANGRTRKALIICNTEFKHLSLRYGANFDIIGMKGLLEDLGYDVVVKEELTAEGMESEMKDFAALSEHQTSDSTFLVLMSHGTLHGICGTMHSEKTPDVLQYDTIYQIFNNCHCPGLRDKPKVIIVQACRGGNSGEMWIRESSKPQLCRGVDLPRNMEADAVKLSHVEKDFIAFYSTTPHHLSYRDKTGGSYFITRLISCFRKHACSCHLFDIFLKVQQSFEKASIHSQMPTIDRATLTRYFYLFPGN
Sequence of Kallikrein 5 (Q9Y337 67-293): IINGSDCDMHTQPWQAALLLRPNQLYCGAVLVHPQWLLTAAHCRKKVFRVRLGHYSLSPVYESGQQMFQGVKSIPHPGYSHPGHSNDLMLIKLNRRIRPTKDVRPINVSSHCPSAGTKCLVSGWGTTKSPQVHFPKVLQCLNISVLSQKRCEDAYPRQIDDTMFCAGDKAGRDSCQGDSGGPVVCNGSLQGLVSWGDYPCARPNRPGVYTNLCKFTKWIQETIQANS
Sequence of Cathepsin G (P08311 21-244): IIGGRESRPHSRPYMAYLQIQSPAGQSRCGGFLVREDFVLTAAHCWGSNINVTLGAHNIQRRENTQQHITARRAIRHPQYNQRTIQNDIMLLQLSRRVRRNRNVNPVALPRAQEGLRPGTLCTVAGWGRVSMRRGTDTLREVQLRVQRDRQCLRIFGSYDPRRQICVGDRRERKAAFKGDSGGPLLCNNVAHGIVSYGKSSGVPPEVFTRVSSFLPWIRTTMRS
Sequence of Caspase 10 (Q92851-2 with tags, fused parts or gaps limits assumed): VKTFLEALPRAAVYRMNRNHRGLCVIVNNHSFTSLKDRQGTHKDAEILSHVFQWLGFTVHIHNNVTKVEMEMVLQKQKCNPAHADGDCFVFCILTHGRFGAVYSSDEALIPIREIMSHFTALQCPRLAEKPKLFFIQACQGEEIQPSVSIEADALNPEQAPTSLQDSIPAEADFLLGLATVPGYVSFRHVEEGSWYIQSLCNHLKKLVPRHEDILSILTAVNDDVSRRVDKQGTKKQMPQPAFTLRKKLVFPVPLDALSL
Sequence of Plasma Kallikrein (P03952 20-390): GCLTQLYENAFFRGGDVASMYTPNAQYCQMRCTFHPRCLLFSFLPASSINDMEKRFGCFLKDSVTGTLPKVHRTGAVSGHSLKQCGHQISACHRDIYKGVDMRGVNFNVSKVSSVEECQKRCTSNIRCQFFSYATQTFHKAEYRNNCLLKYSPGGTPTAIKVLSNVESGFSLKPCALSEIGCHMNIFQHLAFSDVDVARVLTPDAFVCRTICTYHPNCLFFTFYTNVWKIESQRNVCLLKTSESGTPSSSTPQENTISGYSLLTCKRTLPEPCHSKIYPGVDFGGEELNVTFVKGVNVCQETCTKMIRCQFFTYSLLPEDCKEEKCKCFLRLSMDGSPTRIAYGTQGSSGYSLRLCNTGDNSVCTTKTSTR
Sequence of Plasma Kallikrein (P03952 391-638): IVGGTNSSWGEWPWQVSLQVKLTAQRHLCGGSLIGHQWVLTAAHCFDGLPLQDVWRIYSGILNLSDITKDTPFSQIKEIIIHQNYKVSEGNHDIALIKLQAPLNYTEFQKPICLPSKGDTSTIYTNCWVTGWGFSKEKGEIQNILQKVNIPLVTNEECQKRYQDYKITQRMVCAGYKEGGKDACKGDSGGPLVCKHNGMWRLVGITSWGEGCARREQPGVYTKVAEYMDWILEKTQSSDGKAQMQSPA
Sequence of Caspase 6 (P55212 24-293 limits assumed): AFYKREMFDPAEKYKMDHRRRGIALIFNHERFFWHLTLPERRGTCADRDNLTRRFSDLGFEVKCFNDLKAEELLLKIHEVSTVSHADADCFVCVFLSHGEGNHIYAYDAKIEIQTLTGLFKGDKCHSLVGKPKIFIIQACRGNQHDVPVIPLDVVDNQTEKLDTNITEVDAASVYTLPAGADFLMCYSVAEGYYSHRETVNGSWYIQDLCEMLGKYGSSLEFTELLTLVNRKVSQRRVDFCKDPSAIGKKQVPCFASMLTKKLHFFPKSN
Sequence of Chymase (P23946 22-247): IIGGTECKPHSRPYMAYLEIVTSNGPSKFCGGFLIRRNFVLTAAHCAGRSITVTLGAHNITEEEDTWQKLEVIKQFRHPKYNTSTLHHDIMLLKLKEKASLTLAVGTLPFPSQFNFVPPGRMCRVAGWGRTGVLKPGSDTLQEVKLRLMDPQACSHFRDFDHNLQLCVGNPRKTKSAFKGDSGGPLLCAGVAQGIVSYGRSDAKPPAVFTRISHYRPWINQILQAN
Sequence of Cathepsin C (P53634 25-143): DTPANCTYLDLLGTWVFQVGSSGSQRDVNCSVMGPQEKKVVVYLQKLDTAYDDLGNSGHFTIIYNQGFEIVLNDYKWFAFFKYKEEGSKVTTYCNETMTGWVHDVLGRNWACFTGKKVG
Sequence of Cathepsin C (P53634 231-394): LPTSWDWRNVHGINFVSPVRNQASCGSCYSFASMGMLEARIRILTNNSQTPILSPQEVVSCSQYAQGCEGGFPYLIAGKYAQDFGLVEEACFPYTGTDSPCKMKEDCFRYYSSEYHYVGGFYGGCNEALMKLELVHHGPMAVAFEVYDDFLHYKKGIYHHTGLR
Sequence of Cathepsin C (P53634 395-463): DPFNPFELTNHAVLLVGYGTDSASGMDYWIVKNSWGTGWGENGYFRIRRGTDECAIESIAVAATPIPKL
Sequence of Caspase 2 (P42575 167-333): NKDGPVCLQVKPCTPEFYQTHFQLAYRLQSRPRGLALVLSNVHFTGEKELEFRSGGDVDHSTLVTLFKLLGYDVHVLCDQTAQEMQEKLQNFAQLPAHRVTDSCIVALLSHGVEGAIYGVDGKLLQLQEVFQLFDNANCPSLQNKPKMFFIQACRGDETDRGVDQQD
Sequence of Caspase 2 (P42575 348-452): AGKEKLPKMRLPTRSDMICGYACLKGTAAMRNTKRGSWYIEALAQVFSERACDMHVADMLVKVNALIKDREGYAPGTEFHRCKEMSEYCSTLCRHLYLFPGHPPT
Sequence of Papain (P00784 134-345): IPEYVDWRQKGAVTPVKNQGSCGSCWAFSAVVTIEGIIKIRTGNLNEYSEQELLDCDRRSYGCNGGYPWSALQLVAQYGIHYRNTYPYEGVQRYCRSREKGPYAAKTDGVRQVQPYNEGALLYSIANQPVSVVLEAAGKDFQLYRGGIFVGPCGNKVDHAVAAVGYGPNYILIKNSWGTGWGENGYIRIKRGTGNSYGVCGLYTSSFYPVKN
Sequence of Caspase 5 (P51878 347-434): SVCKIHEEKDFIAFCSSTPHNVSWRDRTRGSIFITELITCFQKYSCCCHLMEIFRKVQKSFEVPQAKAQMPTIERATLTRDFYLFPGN
Sequence of Caspase 5 (P51878 138-327): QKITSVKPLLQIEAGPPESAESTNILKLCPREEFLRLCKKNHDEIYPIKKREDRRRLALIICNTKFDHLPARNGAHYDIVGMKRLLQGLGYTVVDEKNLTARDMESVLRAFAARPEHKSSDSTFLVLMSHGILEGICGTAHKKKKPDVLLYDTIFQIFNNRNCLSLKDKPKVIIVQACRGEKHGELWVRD
Sequence of Tryptase b2 (P20231 31-275): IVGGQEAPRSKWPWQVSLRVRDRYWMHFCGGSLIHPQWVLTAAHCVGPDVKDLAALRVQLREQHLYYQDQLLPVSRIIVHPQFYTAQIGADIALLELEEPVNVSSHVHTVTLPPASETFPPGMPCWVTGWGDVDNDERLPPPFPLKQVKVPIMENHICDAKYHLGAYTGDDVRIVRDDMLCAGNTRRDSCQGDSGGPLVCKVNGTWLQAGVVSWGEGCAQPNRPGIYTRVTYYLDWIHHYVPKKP
Sequence of Caspase 9 (P55211 131-416): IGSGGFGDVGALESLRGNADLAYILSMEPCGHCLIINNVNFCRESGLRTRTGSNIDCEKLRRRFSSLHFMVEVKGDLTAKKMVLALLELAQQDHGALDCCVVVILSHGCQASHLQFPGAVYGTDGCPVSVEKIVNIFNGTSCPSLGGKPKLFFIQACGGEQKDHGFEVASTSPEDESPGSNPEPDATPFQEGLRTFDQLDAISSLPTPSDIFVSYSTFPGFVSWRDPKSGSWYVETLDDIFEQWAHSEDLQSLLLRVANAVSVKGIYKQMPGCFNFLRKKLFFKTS

With Cc1ccccc1C(=O)Nc1ccc(C(=O)N2CCCC(O)c3cc(Cl)ccc32)c(C)c1 (stereo not drawn) [tolvaptan] the “plasmatic sodium concentration versus vehicle-treated group” value [1] was “significantly different from values on the vehicle-treated group”.
For CC[C@H](C)[C@@H]1NC(=O)[C@H]([C@@H](C)O)NC(=O)[C@H](CO)NC(=O)[C@H](Cc2ccccc2)NC(=O)[C@H](CCCNC(=N)N)NC(=O)[C@H](CC(N)=O)NC(=O)[C@H](C)NC(=O)[C@H](CC(N)=O)NC(=O)CNC(=O)[C@H](CCCCN)NC(=O)[C@@H]2CSSC[C@@H]3NC(=O)[C@@H]4CCCN4C(=O)CNC(=O)[C@@H]4CCCN4C(=O)[C@H](CCCCN)NC(=O)[C@H](C(C)C)NC(=O)[C@@H]4CCCN4C(=O)[C@H](CC(C)C)NC(=O)[C@H](CC(N)=O)NC(=O)[C@@H](NC(=O)[C@H](Cc4ccccc4)NC(=O)[C@H](CO)NC(=O)[C@@H]4CCCN4C(=O)[C@@H](N)CCCNC(=N)N)CSSC[C@@H](C(=O)N[C@H](C(=O)NCC(=O)O)C(C)C)NC(=O)[C@H]([C@@H](C)O)NC(=O)[C@H](CCCNC(=N)N)NC(=O)[C@H](CCCNC(=N)N)NC(=O)[C@H](CSSC[C@H](NC(=O)[C@H](CCCCN)NC(=O)[C@H](CC(N)=O)NC(=O)[C@H]([C@@H](C)O)NC(=O)[C@H](CCCCN)NC(=O)[C@H](CCC(N)=O)NC(=O)[C@H](CO)NC(=O)[C@H](Cc4ccc(O)cc4)NC(=O)[C@H](Cc4ccc(O)cc4)NC(=O)[C@H](Cc4ccccc4)NC(=O)[C@H](C)NC(=O)[C@H](CO)NC(=O)[C@H](Cc4ccccc4)NC(=O)[C@H](Cc4ccccc4)NC(=O)CNC(=O)[C@H](CC(N)=O)NC3=O)C(=O)N[C@@H](Cc3c[nH]cn3)C(=O)N[C@@H](CO)C(=O)N[C@@H](Cc3ccccc3)C(=O)N[C@@H]([C@@H](C)O)C(=O)N[C@@H](Cc3ccc(O)cc3)C(=O)NCC(=O)NCC(=O)N2)NC(=O)[C@H](CCCCN)NC(=O)[C@H](CCC(=O)O)NC1=O [WT MQ1 peptide, mambaquaretin], the IC50 [2] was 192 nM, the IC50 [3] was 37100 nM and the IC50 [4] was 42500 nM. The IC50 [5] was over 50000 nM, the IC50 [6] was over 50000 nM and the IC50 [7] was 8940 nM. The IC50 [8] was 9330 nM, the IC50 [9] was 14000 nM and the IC50 [10] was 45900 nM. The IC50 [11] was 8540 nM, the IC50 [12] was 18200 nM and the IC50 [13] was 2740 nM. The IC50 [14] was over 50000 nM, the IC50 [15] was 5770 nM and the IC50 [16] was 3650 nM. The IC50 [17] was 116 nM, the IC50 [18] was 17600 nM and the IC50 [19] was 3890 nM. The IC50 [20] was 3690 nM, the IC50 [21] was 3630 nM and the IC50 [22] was over 50000 nM. For the same compound, the “affinity for 156 other GPCRs” value [23] was “no affinity at μM concentrations”.
In the case of CC(=O)N[C@@H](CC(=O)O)C(=O)N[C@@H](CCC(=O)O)C(=O)N[C@H](C(=O)N[C@H](C=O)CC(=O)O)C(C)C [DEVD-CHO], the IC50 ([6]; read-out: Compound IC50) is reported as 26.5 nM and the IC50 [24] is reported as 5.11 nM.
Compound “RPSFCNLPVKPGPCNGFFSAFYYSQKTNKCHSFTYGGCKGAANRFSTIEKCRRTCVG (disulfide 5-55, 14-38, 30-51) [N41A]” has a Ki [25] of 8.49 nM.
CC(C)C[C@H](NC(=O)[C@@H](NC(=O)N[C@@H](Cc1ccccc1)C(=O)O)[C@@H]1CCN=C(N)N1)C(=O)N[C@H](C=O)Cc1ccccc1 [Chymostatin] showed an IC50 [11] of 236 nM and an IC50 [12] of 19.9 nM.
“RPSFCNLPVKPGPCNGFFSAFYYSQKTNKCHSFTYGGCKGNANEFSTLEKCRRTCVG (disulfide 5-55, 14-38, 30-51) [R44E]” gave a Ki [25] of 99.3 nM.
“Gabexate mesylate [Gabexate mesylate (GM)]” showed an IC50 ([14]; read-out: Compound IC50) of 216 nM, an IC50 [26] of 4470 nM and an IC50 ([15]; read-out: Compound IC50) of 697 nM. For the same compound, the IC50 ([16]; read-out: Compound IC50) was 46500 nM, the IC50 [27] was 65.4 nM and the IC50 [28] was 11800 nM. For the same compound, the IC50 [29] was 672 nM, the IC50 ([17]; read-out: Compound IC50) was 315 nM and the IC50 ([19]; read-out: Compound IC50) was 30.3 nM. It also gave an IC50 [30] of 344 nM, an IC50 [31] of 3160 nM and an IC50 ([20]; read-out: Compound IC50) of 11.2 nM. It also gave an IC50 ([21]; read-out: Compound IC50) of 19.8 nM, an IC50 [22] of 10.1 nM and an IC50 [32] of 614 nM.
Compound “RPSFCNLPVEPGPCNGFFSAFYYSQKTNKCHSFTYGGCKGNANRFSTLEKCRRTCVG (disulfide 5-55, 14-38, 30-51) [K10E]” has a Ki [25] of 337 nM.
For CC[C@H](C)[C@H](NC(C)=O)C(=O)N[C@@H](CCC(=O)O)C(=O)N[C@H](C(=O)N[C@H](C=O)CC(=O)O)[C@@H](C)O [IETD-CHO] (Ac-IETD-aldehyde), the IC50 ([3]; read-out: Compound IC50) was 89.3 nM, the IC50 ([4]; read-out: Compound IC50) was 646 nM and the IC50 [33] was 2180 nM. It also gave an IC50 ([5]; read-out: Compound IC50) of 38.3 nM, an IC50 [34] of 2.52 nM and an IC50 ([7]; read-out: Compound IC50) of 51.5 nM. The IC50 ([8]; read-out: Compound IC50) was 28.3 nM and the IC50 ([9]; read-out: Compound IC50) was 934 nM.
Compound “RPSFCNLPVAPGPCNGFFSAFYYSQKTNKCHSFTYGGCKGNANRFSTLEKCRRTCVG (disulfide 5-55, 14-38, 30-51) [K10A]” has a Ki [25] of 9.38 nM.
For “RPSFCNLPVKPGPCNGFFSAFYYSQKTNKCHSFTYGGCKGNANAFSTLEKCRRTCVG (disulfide 5-55, 14-38, 30-51) [R44A]”, the Ki [25] was 13.3 nM.
In the case of CC(=O)N[C@@H](CC(C)C)C(=O)N[C@@H](CC(C)C)C(=O)N[C@H](C=O)CCCNC(=N)N [Leupeptin], the IC50 [35] is reported as 296 nM and the IC50 [36] is reported as 31500 nM.
For Cc1nc2c([nH]1)-c1ccccc1N(C(=O)c1ccc(NC(=O)c3ccccc3-c3ccccc3)cc1)CC2 [Conivaptan], the V2/Vla selectivity index [37] is listed as 0.15.
For CCOc1ccc2c(c1)C1(CCC(OCCN3CCOCC3)CC1)C(=O)N2S(=O)(=O)c1ccc(C(=O)NC(C)(C)C)cc1OC (stereo not drawn) [Satavaptan], the V2/Vla selectivity index [37] is listed as 112.
CC(C)C[C@H](NC(=O)[C@H]1O[C@@H]1C(=O)O)C(=O)NCCCCN=C(N)N [E64] showed an IC50 [38] of 5.1 nM, an IC50 ([10]; read-out: Compound IC50) of 590 nM and an IC50 [39] of 67.1 nM. It also gave an IC50 [40] of 1.96 nM, an IC50 [41] of 5.43 nM and an IC50 [42] of 19.7 nM. The IC50 ([18]; read-out: Compound IC50) was 0.118 nM.
